Read-outs that look alike come from different tables or passages of the source. Peptide text beside a SMILES is read from it.
Conditions: human, in vivo
[1] = single 1-hour infusion 0.05 mg/kg, Geometric Mean
[2] = single 1-hour infusion 0.05 mg/kg, Mean
[3] = single 1-hour infusion 0.05 mg/kg, Median
[4] = single 1-hour infusion 0.05 mg/kg, individual subjects
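Further: phase 1 study in human subjects given one IV dose of the peptide, enrolled in sequential ascending-dose cohorts and randomized to peptide or placebo.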

## CC(C)[C@H](NC(=O)[C@H](Cc1c[nH]c2ccccc12)NC(=O)[C@H](CCCNC(=N)N)NC(=O)[C@H](CCCNC(=N)N)NC(=O)[C@@H](NC(=O)[C@@H](NC(=O)[C@H](CCCNC(=N)N)NC(=O)[C@@H](NC(=O)[C@@H](NC(=O)[C@H](CCCNC(=N)N)NC(=O)[C@H](CCCNC(=N)N)NC(=O)[C@H](Cc1c[nH]c2ccccc12)NC(=O)[C@@H](NC(=O)[C@H](CCCNC(=N)N)NC(=O)[C@H](CCCNC(=N)N)NC(=O)[C@@H](NC(=O)[C@H](CCCNC(=N)N)NC(=O)[C@H](CCCNC(=N)N)NC(=O)[C@@H](NC(=O)[C@H](Cc1c[nH]c2ccccc12)NC(=O)[C@H](CCCNC(=N)N)NC(=O)[C@@H](N)CCCNC(=N)N)C(C)C)C(C)C)C(C)C)C(C)C)C(C)C)C(C)C)C(C)C)C(=O)N[C@@H](CCCNC(=N)N)C(=O)N[C@@H](CCCNC(=N)N)C(N)=O [SEQ ID NO: 1] (H-RRWVRRVRRVWRRVVRVVRRWVRR-NH2)
  clearance: 40.3 to 69.7 mL/min
0.05 mg/kg, AUC0-inf, 0.05 mg/kg 1-hr infusion
  AUC(0-inf): 1580 ng·h/mL
0.05 mg/kg, AUC0-t, 0.05 mg/kg 1-hr infusion
  AUC(0-t): 1280 ng·h/mL
0.05 mg/kg, AUC0-∞
  AUC(0-inf): 1580 ng·h/mL
0.05 mg/kg, 0.05 mg/kg 1-hr infusion
  Cmax: 256 ng/mL
0.05 mg/kg, mean AUC0-t
  AUC(0-t): 1280 ng·h/mL
0.05 mg/kg, t1/2, 0.05 mg/kg 1-hr infusion
  half-life: 7.4 h
0.5 mg/kg, AUC0-inf, 0.5 mg/kg 2-hr infusion
  AUC(0-inf): 9090 ng·h/mL
0.5 mg/kg, AUC0-t, 0.5 mg/kg 2-hr infusion
  AUC(0-t): 8330 ng·h/mL
0.5 mg/kg, 0.5 mg/kg 2-hr infusion
  Cmax: 1830 ng/mL
0.5 mg/kg, t1/2, 0.5 mg/kg 2-hr infusion
  half-life: 16.2 h
1 mg/kg, AUC0-∞
  AUC(0-inf): 21100 ng·h/mL
1 mg/kg, mean AUC0-t
  AUC(0-t): 21600 ng·h/mL
AUC0-24, single 1-hour infusion 0.05 mg/kg, Geometric Mean
  AUC(0-t): 1230 ng·h/mL
AUC0-24, single 1-hour infusion 0.05 mg/kg, Mean
  AUC(0-t): 1290 ng·h/mL
AUC0-24, single 1-hour infusion 0.05 mg/kg, Median
  AUC(0-t): 1350 ng·h/mL
AUC0-inf, single 1-hour infusion 0.05 mg/kg, Geometric Mean
  AUC(0-inf): 1600 ng·h/mL
AUC0-inf, single 1-hour infusion 0.05 mg/kg, Mean
  AUC(0-inf): 1610 ng·h/mL
AUC0-inf, single 1-hour infusion 0.05 mg/kg, Median
  AUC(0-inf): 1520 ng·h/mL
AUC0-inf, single 1-hour infusion 0.05 mg/kg, individual subjects
  AUC(0-inf): 1400 ng·h/mL
AUC0-t, single 1-hour infusion 0.05 mg/kg, Geometric Mean
  AUC(0-t): 1220 ng·h/mL
AUC0-t, single 1-hour infusion 0.05 mg/kg, Mean
  AUC(0-t): 1310 ng·h/mL
AUC0-t, single 1-hour infusion 0.05 mg/kg, Median
  AUC(0-t): 1350 ng·h/mL
[1]
  CL/F: 0.522 mL/min/kg
  Cmax: 251 ng/mL
  Tmax: 1 h
[2]
  CL/F: 0.525 mL/min/kg
  Cmax: 256 ng/mL
  Tmax: 1 h
[3]
  CL/F: 0.548 mL/min/kg
  Cmax: 262 ng/mL
  Tmax: 1 h
[4]
  CL/F: 0.595 mL/min/kg
  Tmax: 1 h
Single 1-hour infusion […], individual subjects
  Tmax: 1 h
[…], t1/2, […] 1-hr infusion
  half-life: 10.5 h
[…], t1/2, […] 1-hr infusion (only 3 subjects)
  half-life: 19.9 h
[…], t1/2, […] 2-hr infusion
  half-life: 13.2 h
iv, 0.05 mg/kg, AUC0-t, 0.05 mg/kg IV 1-hr infusion
  AUC(0-t): 1280 ng·h/mL
iv, 0.05 mg/kg, AUC0-∞, 0.05 mg/kg IV 1-hr infusion
  AUC(0-inf): 1580 ng·h/mL
iv, 0.05 mg/kg, AUC(0-24), Actual mean, Phase 1 subjects, 0.05 mg/kg IV
  AUC(0-t): 1290 ng·h/mL
iv, 0.05 mg/kg, 0.05 mg/kg IV 1-hr infusion
  Cmax: 256 ng/mL
iv, 0.05 mg/kg, t1/2, 0.05 mg/kg IV 1-hr infusion
  half-life: 7.37 h
iv, 0.5 mg/kg, AUC0-t, 0.5 mg/kg IV 2-hr infusion
  AUC(0-t): 8330 ng·h/mL
iv, 0.5 mg/kg, AUC0-∞, 0.5 mg/kg IV 2-hr infusion
  AUC(0-inf): 9090 ng·h/mL
iv, 0.5 mg/kg, 0.5 mg/kg IV 2-hr infusion
  Cmax: 1830 ng/mL
iv, 0.5 mg/kg, t1/2, 0.5 mg/kg IV 2-hr infusion
  half-life: 16.2 h
iv, 1 mg/kg, AUC0-t, 1 mg/kg IV 4-hr infusion
  AUC(0-t): 21600 ng·h/mL
iv, 1 mg/kg, AUC0-∞, 1 mg/kg IV 4-hr infusion
  AUC(0-inf): 21100 ng·h/mL
iv, 1 mg/kg, 1 mg/kg IV 4-hr infusion
  Cmax: 2650 ng/mL
iv, 1 mg/kg, t1/2, 1 mg/kg IV 4-hr infusion
  half-life: 20 h
iv, AUC0-24, Cohort 1, 0.05 mg/kg IV infusion, Geometric Mean
  AUC(0-t): 1230 ng·h/mL
iv, AUC0-24, Cohort 1, 0.05 mg/kg IV infusion, Mean
  AUC(0-t): 1290 ng·h/mL
iv, AUC0-24, Cohort 1, 0.05 mg/kg IV infusion, Median
  AUC(0-t): 1350 ng·h/mL
iv, AUC0-24, Cohort 1, 0.05 mg/kg IV infusion, cohort Geometric Mean
  AUC(0-t): 1230 ng·h/mL
iv, AUC0-24, Cohort 1, 0.05 mg/kg IV infusion, cohort Mean
  AUC(0-t): 1290 ng·h/mL
iv, AUC0-24, Cohort 1, 0.05 mg/kg IV infusion, cohort Median
  AUC(0-t): 1350 ng·h/mL
iv, AUC0-24, Cohort 4, 0.5 mg/kg IV infusion 2 hours, Geometric Mean
  AUC(0-t): 6930 ng·h/mL
iv, AUC0-24, Cohort 4, 0.5 mg/kg IV infusion 2 hours, Mean
  AUC(0-t): 7390 ng·h/mL
iv, AUC0-24, Cohort 4, 0.5 mg/kg IV infusion 2 hours, Median
  AUC(0-t): 7270 ng·h/mL
iv, AUC0-24, Cohort 4, 0.5 mg/kg IV, infusion 2 hours, cohort Geometric Mean
  AUC(0-t): 6930 ng·h/mL
iv, AUC0-24, Cohort 4, 0.5 mg/kg IV, infusion 2 hours, cohort Mean
  AUC(0-t): 7390 ng·h/mL
iv, AUC0-24, Cohort 4, 0.5 mg/kg IV, infusion 2 hours, cohort Median
  AUC(0-t): 7270 ng·h/mL
iv, AUC0-24, Cohort 5, 1 mg/kg IV infusion 4 hours, Geometric Mean
  AUC(0-t): 17300 ng·h/mL
iv, AUC0-24, Cohort 5, 1 mg/kg IV infusion 4 hours, Mean
  AUC(0-t): 18000 ng·h/mL
iv, AUC0-24, Cohort 5, 1 mg/kg IV infusion 4 hours, Median
  AUC(0-t): 14800 ng·h/mL
iv, AUC0-inf, Cohort 1, 0.05 mg/kg IV infusion, Geometric Mean
  AUC(0-inf): 1600 ng·h/mL
iv, AUC0-inf, Cohort 1, 0.05 mg/kg IV infusion, Mean
  AUC(0-inf): 1610 ng·h/mL
iv, AUC0-inf, Cohort 1, 0.05 mg/kg IV infusion, Median
  AUC(0-inf): 1520 ng·h/mL
iv, AUC0-inf, Cohort 1, 0.05 mg/kg IV infusion, cohort Geometric Mean
  AUC(0-inf): 1600 ng·h/mL
iv, AUC0-inf, Cohort 1, 0.05 mg/kg IV infusion, cohort Mean
  AUC(0-inf): 1610 ng·h/mL
iv, AUC0-inf, Cohort 1, 0.05 mg/kg IV infusion, cohort Median
  AUC(0-inf): 1520 ng·h/mL
iv, AUC0-inf, Cohort 1, 0.05 mg/kg IV infusion, individual subject
  AUC(0-inf): 1400 ng·h/mL
iv, AUC0-inf, Cohort 1, 0.05 mg/kg IV infusion, individual subjects
  AUC(0-inf): 1400 ng·h/mL
iv, AUC0-inf, Cohort 4, 0.5 mg/kg IV infusion 2 hours, Geometric Mean
  AUC(0-inf): 8530 ng·h/mL
iv, AUC0-inf, Cohort 4, 0.5 mg/kg IV infusion 2 hours, Mean
  AUC(0-inf): 9200 ng·h/mL
iv, AUC0-inf, Cohort 4, 0.5 mg/kg IV infusion 2 hours, Median
  AUC(0-inf): 9540 ng·h/mL
iv, AUC0-inf, Cohort 4, 0.5 mg/kg IV, infusion 2 hours, cohort Geometric Mean
  AUC(0-inf): 8530 ng·h/mL
iv, AUC0-inf, Cohort 4, 0.5 mg/kg IV, infusion 2 hours, cohort Mean
  AUC(0-inf): 9200 ng·h/mL
iv, AUC0-inf, Cohort 4, 0.5 mg/kg IV, infusion 2 hours, cohort Median
  AUC(0-inf): 9540 ng·h/mL
iv, AUC0-inf, Cohort 5, 1 mg/kg IV infusion 4 hours, Geometric Mean
  AUC(0-inf): 21100 ng·h/mL
iv, AUC0-inf, Cohort 5, 1 mg/kg IV infusion 4 hours, Mean
  AUC(0-inf): 21300 ng·h/mL
iv, AUC0-inf, Cohort 5, 1 mg/kg IV infusion 4 hours, Median
  AUC(0-inf): 21000 ng·h/mL
iv, AUC0-inf, Cohort 5, 1 mg/kg IV infusion 4 hours, individual subject
  AUC(0-inf): 22100 ng·h/mL
iv, AUC0-t, Cohort 1, 0.05 mg/kg IV infusion, Geometric Mean
  AUC(0-t): 1220 ng·h/mL
iv, AUC0-t, Cohort 1, 0.05 mg/kg IV infusion, Mean
  AUC(0-t): 1310 ng·h/mL
iv, AUC0-t, Cohort 1, 0.05 mg/kg IV infusion, Median
  AUC(0-t): 1350 ng·h/mL
iv, AUC0-t, Cohort 1, 0.05 mg/kg IV infusion, cohort Geometric Mean
  AUC(0-t): 1220 ng·h/mL
iv, AUC0-t, Cohort 1, 0.05 mg/kg IV infusion, cohort Mean
  AUC(0-t): 1310 ng·h/mL
iv, AUC0-t, Cohort 1, 0.05 mg/kg IV infusion, cohort Median
  AUC(0-t): 1350 ng·h/mL
iv, AUC0-t, Cohort 4, 0.5 mg/kg IV infusion 2 hours, Geometric Mean
  AUC(0-t): 7830 ng·h/mL
iv, AUC0-t, Cohort 4, 0.5 mg/kg IV infusion 2 hours, Mean
  AUC(0-t): 8440 ng·h/mL
iv, AUC0-t, Cohort 4, 0.5 mg/kg IV infusion 2 hours, Median
  AUC(0-t): 8540 ng·h/mL
iv, AUC0-t, Cohort 4, 0.5 mg/kg IV, infusion 2 hours, cohort Geometric Mean
  AUC(0-t): 7830 ng·h/mL
iv, AUC0-t, Cohort 4, 0.5 mg/kg IV, infusion 2 hours, cohort Mean
  AUC(0-t): 8440 ng·h/mL
iv, AUC0-t, Cohort 4, 0.5 mg/kg IV, infusion 2 hours, cohort Median
  AUC(0-t): 8540 ng·h/mL
iv, AUC0-t, Cohort 5, 1 mg/kg IV infusion 4 hours, Geometric Mean
  AUC(0-t): 20400 ng·h/mL
iv, AUC0-t, Cohort 5, 1 mg/kg IV infusion 4 hours, Mean
  AUC(0-t): 21200 ng·h/mL
iv, AUC0-t, Cohort 5, 1 mg/kg IV infusion 4 hours, Median
  AUC(0-t): 17600 ng·h/mL
iv, Cohort 1, 0.05 mg/kg IV infusion, Geometric Mean
  Cmax: 251 ng/mL
iv, Cohort 1, 0.05 mg/kg IV infusion, Mean
  Cmax: 256 ng/mL
iv, Cohort 1, 0.05 mg/kg IV infusion, Median
  Cmax: 262 ng/mL
iv, Cohort 1, 0.05 mg/kg IV infusion, cohort Geometric Mean
  Cmax: 251 ng/mL
iv, Cohort 1, 0.05 mg/kg IV infusion, cohort Mean
  Cmax: 256 ng/mL
iv, Cohort 1, 0.05 mg/kg IV infusion, cohort Median
  Cmax: 262 ng/mL
iv, Cohort 4, 0.5 mg/kg IV infusion 2 hours, Geometric Mean
  Cmax: 1770 ng/mL
iv, Cohort 4, 0.5 mg/kg IV infusion 2 hours, Mean
  Cmax: 1830 ng/mL

— patent US20240115654A1, “INTRAVENOUS ADMINISTRATION OF ENGINEERED ANTIMICROBIAL AMPHIPHILIC PEPTIDES” (priority 2021, published 2024)
